Measurements published in patent publication US10174067B2, “Type of cytidine derivative and application thereof” (priority 2014, dated 2019).
Marks after values point to notes of the source that are not given here.

Assays:
[1] = Experimental: To determine the growth inhibition effect and toxicity of the cytidine derivative samples of the present invention on the transplanted tumor of nude mice bearing colon cancer HCT-116.
(§1) The corresponding amount of test substance was taken in a 5 mL glass tube and dissolved in ethanol with a 5 mm magnetic stirrer for stirring. After dissolving completely, Cremophor EL was added with continuous stirring. The marked amount of saline was added and mixed evenly before use. The volume ratio of ethanol, Cremophor EL, and physiological saline was 5:5:90.
Varieties and lines; Balb/c Nude mice; level: SPF; sex: female.
4.2 Animal inoculation and grouping: Each nude mouse was inoculated subcutaneously with 0.1 mL of cell suspension (3×10^6 cell/mouse) at right side of hind limb in a sterile stale. When the tumor grew to about 60-150 mm^3, the nude mice with similar tumor volume and desirable shape were selected (it would be better to select single spherical shape, no irregular shape or multiple tumors grouped together) for grouping, 6 mice a group. The grouping is as follows:
The control group, namely the model control group, was injected with a mixture of ethanol, Cremophor EL, and saline (5:5:90).
Those mice were weighed three times a week.
All clinical symptoms of each animal should be recorded at the beginning of the test and during the test. The observations should be made at the same time each day.
An animal would be killed by CO2 when its weight loss was more than 20%, when it was about to die, or when its tumor volume exceeded 2800 mm^3. The tumor was separated and weighed, and the animal was autopsied and observed to evaluate and record whether there were pathological changes in the organs.
The data were expressed as Mean±SEM unless specially provided; Non-pairing T test was performed for the data between the two groups. P<0.05 was considered as significant difference.

[2] = test system: HCT-116 colon cancer xenografts; experiment: Tumor growth inhibition of HCT-116 colon cancer xenografts in tumor-bearing nude mice (tumor volume, TGI %, RTV, T/C %); format: in vivo, Balb/c Nude mice
Experimental: 4.1 Tumor cells: colon cancer HCT-116 cells, purchased from the Institute of Cell Biology, Chinese Academy of Sciences. The cells were incubated by F-12 medium (containing 10% FBS) in carbon dioxide incubator at 37° C. and in saturated humidity, with 5% CO2 and 95% air in volume fraction. Before inoculation, the cells at logarithmic phase were taken, and digested with 0.25% trypsin, washed once with PBS and resuspended in PBS for counting. The cells were resuspended in serum-free medium and adjusted to about 3×10^7 cell/mL.
The grouping is as follows:
The formations of tumor at the inoculation site of each group of nude mice were observed. The diameter of tumor nodule (D) was measured three times a week with round hole ruler, and the volume of tumor nodule (V) was calculated according to the following formula: […].
Anti-tumor activity was evaluated by tumor growth inhibition rate TGI (%) and relative tumor proliferation rate T/C (%).
The relative tumor volume (RTV) was calculated as: RTV=Vt/V0, where V0 was the tumor volume when they were grouped and administered, and Vt was the tumor volume at the time of measurement.
The relative proliferation rate T/C (%) was calculated as: […].
TRTV: RTV of the treatment group; CRTV: RTV of the control group.
P<0.05 was considered as significant difference.

[3] = test system: ICR mice; experiment: in vivo; details: female ICR mice; single-dose ip
Experimental: This experiment was to investigate the toxic effects of single-dose intraperitoneal administration on ICR mice and determine the maximum tolerated dose (MTD) of each subject. Maximum tolerated dose (MTD) refers to the dose that may not cause an animal to die, may not cause the animal to suffer weight loss exceeding 10% (compared with Day 0), or may not produce significant side effects.
as §1
Varieties and lines: ICR mice; level: SPF; sex: female.
Method of administration: ip. The dose was reduced in case of animal death, till an animal survived; the dose was increased in case of no animal death; the test was ended when the animals survived normally at the given high dose. Finally, the MTD of the mice on the test substances was determined according to the test results. The animals were observed continuously for 7 days after acute administration.
During the experiment, all animals were under detailed and continuous clinical observation for […], twice a day (10:00 am, 16:00 pm) after administration. The observation included but not limited to: skin, hair, ear, nose, mouth, chest, abdomen, external genitalia, limbs and feet, respiratory and circulatory system, autonomic effects (such as salivation), nervous system (such as tremor, convulsions, stress response and abnormal behavior).
The body of animals was weighed before administration, and then weighed and recorded at the same time each day.
The observation results, animal body weight, and animal survival after one week of administration were recorded in detail every day.

[4] = Day 0, G3-G9 groups, single IP dose, Mean±SEM
[5] = Day 4, G3-G9 groups, single IP dose, Mean±SEM
[6] = Day 6, G3-G9 groups, single IP dose, Mean±SEM
[7] = Day 8, G3-G9 groups, single IP dose, Mean±SEM
[8] = Day 11, G3-G9 groups, single IP dose, Mean±SEM
[9] = Day 13, G3-G9 groups, single IP dose, Mean±SEM
[10] = Day 15, G3-G9 groups, single IP dose, Mean±SEM
[11] = Day 18, G3-G9 groups, single IP dose, Mean±SEM
[12] = Day 20, G3-G9 groups, single IP dose, Mean±SEM
[13] = Day 22, G3-G9 groups, single IP dose, Mean±SEM

SMILES: O=C(Nc1ccn([C@@H]2O[C@H](CO)[C@@H](O)C2(F)F)c(=O)n1)OCc1ccccc1 [Compound G4, 4-N-(carboxybenzyl)-2′-deoxy-2′,2′-difluorocytidine]
- Weight change rate, Day 0 [1, 4]: 0.00 ± 0.00%
- Weight of mice, Day 0 [1, 4]: 20.20 ± 0.55 g
- weights of animals on Day 4 after administration ([1]; Day 4 (G7: Day 4 and Day 6), p<0.05): significantly reduced
- Weight change rate, Day 4 [1, 5]: −10.91 ± 3.45 %
- Weight of mice, Day 4 [1, 5]: 18.22 ± 1.19 g
- weight loss rate on Day 4 after administration ([1]; Day 4, G4 350 mg/kg, G5 325 mg/kg, G7 250 mg/kg, single IP): 10.91±3.45%
- animals died on Day 4 after administration ([1]; Day 4, G4 350 mg/kg, G8 350 mg/kg, G6 300 mg/kg, single IP, 6 mice a group): 1
- Weight change rate, Day 6 [1, 6]: −1.87 ± 2.96%
- Weight of mice, Day 6 [1, 6]: 20.06 ± 1.18 g
- Weight change rate, Day 8 [1, 7]: 0.30 ± 1.84%
- Weight of mice, Day 8 [1, 7]: 20.48 ± 0.97 g
- Weight change rate, Day 11 [1, 8]: 3.85 ± 5.08%
- Weight of mice, Day 11 [1, 8]: 21.08 ± 0.76 g
- Weight change rate, Day 13 [1, 9]: 7.64 ± 4.55%
- Weight of mice, Day 13 [1, 9]: 21.86 ± 0.67 g
- Weight change rate, Day 15 [1, 10]: 8.84 ± 4.33%
- Weight of mice, Day 15 [1, 10]: 22.10 ± 0.57 g
- Weight change rate, Day 18 [1, 11]: 9.28 ± 3.53 %
- Weight of mice, Day 18 [1, 11]: 22.20 ± 0.43 g
- Weight change rate, Day 20 [1, 12]: 10.50 ± 4.03 %
- Weight of mice, Day 20 [1, 12]: 22.44 ± 0.49 g
- Weight change rate, Day 22 [1, 13]: 11.39 ± 4.05%
- Weight of mice, Day 22 [1, 13]: 22.62 ± 0.49 g
- Day 22 Mortality ([1]; Day 22, single IP dose (mg/kg)): 17%
- body weight compared with model control group ([1]; G4 Day 18 to Day 20 (p<0.05), G5 Day 13 to Day 20 (p<0.05~0.01)): significantly increased
- clinical symptoms ([1]; after single IP dose, compared with model control group): 3 animals had less activity, loss of body weight, and body surface temperature lower than normal
- Day 0 (RTV) [2, 4]: 1.00 ± 0.00
- Tumor volume, Day 0 [2, 4]: 63.44 ± 18.74** mm^3
- Day 4 (TGI %) ([2]; Day 4, G3-G9 groups, single IP dose): 83.29%
- Day 4 (RTV) [2, 5]: 0.70 ± 0.13
- Tumor volume, Day 4 [2, 5]: 44.53 ± 13.75** mm^3
- Day 6 (TGI %) ([2]; Day 6, G3-G9 groups, single IP dose): 89.82%
- Day 6 (RTV) [2, 6]: 0.68 ± 0.10
- Tumor volume, Day 6 [2, 6]: 43.04 ± 10.69** mm^3
- Day 8 (TGI %) ([2]; Day 8, G3-G9 groups, single IP dose): 91.66%
- Day 8 (RTV) [2, 7]: 0.69 ± 0.13
- Tumor volume, Day 8 [2, 7]: 43.83 ± 12.73** mm^3
- tumor inhibition effect ([2]; Day 8 to Day 13 after single-dose intraperitoneal administration): good tumor inhibition effect
- Day 11 (TGI %) ([2]; Day 11, G3-G9 groups, single IP dose): 92.58%
- Day 11 (RTV) [2, 8]: 1.12 ± 0.29
- Tumor volume, Day 11 [2, 8]: 59.68 ± 11.72** mm^3
- Day 13 (TGI %) ([2]; Day 13, G3-G9 groups, single IP dose): 92.57%
- Day 13 (RTV) [2, 9]: 1.51 ± 0.39
- Tumor volume, Day 13 [2, 9]: 86.22 ± 24.86** mm^3
- Day 15 (TGI %) ([2]; Day 15, G3-G9 groups, single IP dose): 90.04%
- Day 15 (RTV) [2, 10]: 2.80 ± 0.97
- Tumor volume, Day 15 [2, 10]: 140.70 ± 34.22** mm^3
- Day 18 (TGI %) ([2]; Day 18, G3-G9 groups, single IP dose): 85.93%
- Day 18 (RTV) [2, 11]: 5.36 ± 1.82
- Tumor volume, Day 18 [2, 11]: 260.52 ± 51.15** mm^3
- Day 20 (TGI %) ([2]; Day 20, G3-G9 groups, single IP dose): 78.95%
- Day 20 (RTV) [2, 12]: 9.65 ± 3.23
- Tumor volume, Day 20 [2, 12]: 446.16 ± 65.85** mm^3
- Day 22 (TGI %) ([2]; Day 22, G3-G9 groups, single IP dose): 75.68%
- Day 22 (RTV) [2, 13]: 14.66 ± 5.30
- Tumor volume, Day 22 [2, 13]: 636.07 ± 78.89** mm^3
- T/C % on Day 22 ([2]; Day 22, G4 350 mg/kg, G5 325 mg/kg, G7 250 mg/kg, single IP): 75.38%
- relative tumor volume compared with the model control group ([2]; G4 and G5 Day 4 to Day 18, G7 Day 4 to Day 15 (p<0.05-0.01), G9 only Day 4 (p<0.05)): reduced significantly
- maximum value of TGI % ([2]; day of maximum: G3 Day 8, G4 Day 11, G5 Day 11, G9 Day 4, G7 Day 8, single IP): 92.58%
- minimum value of T/C % ([2]; day of minimum: G4 Day 13, G5 Day 11, G7 Day 8, single IP): 17.62%
- dose that could be tolerated (maximum tolerated dose, MTD) [3]: 350 mg/kg
